These results are taken from patent publication US7166636B2, “Indole-amid derivatives which possess glycogen phosphorylase inhibitory activity” (AstraZeneca AB, priority 2002, dated 2007).

One assay deals with db/db and ob/ob mice. Particulars: db/db and ob/ob mice following treatment; cited from earlier work.
The test system of another assay is hepatocytes. The conditions noted are these: cited from earlier work; for glucose output: glucagon stimulated.
Assay [1] addresses T1, Human recombinant liver glycogen phosphorylase a (hrl GPa) (Homo sapiens, UniProt P06737).
T1 sequence (P06737 1-847): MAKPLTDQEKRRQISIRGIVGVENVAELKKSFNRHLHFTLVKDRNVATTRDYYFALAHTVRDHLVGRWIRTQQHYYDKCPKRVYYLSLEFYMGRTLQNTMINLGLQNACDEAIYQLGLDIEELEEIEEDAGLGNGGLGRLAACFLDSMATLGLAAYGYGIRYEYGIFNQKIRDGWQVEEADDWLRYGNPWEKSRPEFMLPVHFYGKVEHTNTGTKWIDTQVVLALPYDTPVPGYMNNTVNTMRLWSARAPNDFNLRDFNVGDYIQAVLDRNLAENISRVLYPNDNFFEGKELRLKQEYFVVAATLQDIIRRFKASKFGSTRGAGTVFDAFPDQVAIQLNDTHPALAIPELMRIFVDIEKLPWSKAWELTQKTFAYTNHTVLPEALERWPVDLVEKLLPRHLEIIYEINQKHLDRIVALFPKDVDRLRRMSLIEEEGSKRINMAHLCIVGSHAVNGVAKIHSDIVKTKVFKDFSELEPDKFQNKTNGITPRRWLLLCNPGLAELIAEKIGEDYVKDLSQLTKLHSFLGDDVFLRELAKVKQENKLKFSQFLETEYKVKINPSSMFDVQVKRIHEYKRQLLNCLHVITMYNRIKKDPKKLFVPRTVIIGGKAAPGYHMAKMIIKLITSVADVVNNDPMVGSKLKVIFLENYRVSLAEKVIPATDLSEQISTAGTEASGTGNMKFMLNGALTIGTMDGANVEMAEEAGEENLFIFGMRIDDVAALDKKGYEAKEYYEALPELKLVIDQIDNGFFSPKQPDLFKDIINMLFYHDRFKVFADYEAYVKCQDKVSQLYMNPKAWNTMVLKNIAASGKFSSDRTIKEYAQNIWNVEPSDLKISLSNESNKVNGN
Briefly: Glycogen phosphorylase a inhibition, glycogen degradation, multienzyme coupled assay (NADH fluorescence). The format is biochemical. Particulars: hrl GPa 20 nM, 6 hours at 30° C. The procedure: The activity of the compounds is alternatively determined by measuring the inhibitory effect of the compounds on glycogen degradation, the production of glucose-1-phosphate from glycogen is monitored by the multienzyme coupled assay, as described in EP 0 846 464 A2, general method of Pesce et al (Pesce, M A, Bodourian, S H, Harris, R C, and Nicholson, J F (1977) Clinical Chemistry 23, […]). The reactions were in 384 well microplate format in a volume of 50 μl. The change in fluorescence due to the conversion of the co-factor NAD to NADH is measured at 340 nm excitation, 465 nm emission in a Tecan Ultra Multifunctional Microplate Reader. The reaction is in 50 OmM HEPES, 3.5 mM KH2PO4, 2.5 mM MgCl2, 2.5 mM ethylene glycol-bis(b-aminoethyl ether) N,N,N′,N′-tetraacetic acid, 100 mM KCl, 8 mM D-(+)-glucose pH7.2, containing 0.5 mM dithiothreitol, the assay buffer solution. Human recombinant liver glycogen phosphorylase a (hrl GPa) 20 nM is pre-incubated in assay buffer solution with 6.25 mM NAD, 1.25 mg type III glycogen at 1.25 mg ml^−1 the reagent buffer, for 30 minutes. […] The non-inhibited activity of GPa is measured in the presence of 10 μl 5% DMSO in assay buffer solution and maximum inhibition measured in the presence of 5 mgs ml^−1 N-ethylmaleimide. […] Relative Fluoresence Units (RFUs) are measured at 340 nm excitation, 465 nm emission. […]

A further assay concerns conscious dogs. Particulars: following a glucagon challenge; cited from earlier work.

Turning to `CN(C)C(=O)[C@H](O)[C@H](Cc1ccccc1)NC(=O)c1cc2cc(Cl)ccc2[nH]1` [CP91149], in the assay on db/db and ob/ob mice, the plasma glucose concentration result was “reduced, in a dose related manner”. Further, in the assay with hepatocytes, the glucagon stimulated glycogenolysis result is “reduce” and the glucose output entry is reported as “reduce”.

For `O=C(N[C@@H](Cc1ccc(F)cc1)C(=O)N1CCC(O)CC1)c1cc2cc(Cl)ccc2[nH]1` [CP320626], the plasma glucose concentration entry in the assay with db/db and ob/ob mice was “reduced, in a dose related manner”. In addition, in the assay on hepatocytes, the glucagon stimulated glycogenolysis entry is reported as “reduce” and the glucose output entry is “reduce”.

The IC50 is the concentration needed to halve the response being measured. Take `COC(=O)c1ncoc1[C@H](Cc1ccccc1)NC(=O)c1cc2cc(Cl)ccc2[nH]1` [Example 1, Methyl (S)-5-{1-[(5-chloro-1H-indol-2-ylcarbonyl)amino]-2-phenylethyl}oxazole-4-carboxylate]: the IC50 in assay [1] was 2400 nM.

In the case of `CCN1C(C)=C(C(=O)OC(C)C)C(c2ccccc2Cl)C2=C1COC2=O` (stereo not drawn) [Bay R 3401], in the assay with conscious dogs, the arterial plasma glucose result is “reduced significantly” and the hepatic glucose output entry is “reduced significantly”.
